Laboratory results as given in patent publication US6638955B2, “Antibiotic oxazolidinone derivatives” (priority 1996, dated 2003).
In brackets after ≈: the same amount, converted by molar mass.

Legend:
Assay in all cases: MIC, agar-dilution, standard in-vitro test
Format in all cases: cell-based
[1] = system: Coagulase Negative Staphylococcus MR (methicillin resistant); settings: 10^4 CFU/spot, 37° C., 24 hours
Experimental: (§1) The following results were obtained on a standard in-vitro test system. The activity is described in terms of the minimum inhibitory concentration (MIC) determined by the agar-dilution technique with an inoculum size of 10^4 CFU/spot.
(§2) Staphylococci were tested on agar, using an inoculum of 10^4 CFU/spot and an incubation temperature of 37° C. for 24 hours—standard test conditions for the expression of methicillin resistance.

[2] = system: Coagulase Negative Staphylococcus MS (methicillin sensitive); settings: 10^4 CFU/spot, 37° C., 24 hours
Experimental: as §1, §2

[3] = system: Staphylococcus aureus MRQR (methicillin resistant quinolone resistant); settings: 10^4 CFU/spot, 37° C., 24 hours
Experimental: as §1, §2

[4] = system: Staphylococcus aureus MRQS (methicillin resistant quinolone sensitive); settings: 10^4 CFU/spot, 37° C., 24 hours
Experimental: as §1, §2

[5] = system: Staphylococcus aureus Novb. Res (Novobiocin resistant); settings: 10^4 CFU/spot, 37° C., 24 hours
Experimental: as §1, §2

[6] = system: Staphylococcus aureus Oxford; settings: 10^4 CFU/spot, 37° C., 24 hours
Experimental: as §1, §2

Enterococcus faecalis = settings: agar with 5% defibrinated horse blood, 10^4 CFU/spot, 37° C., 5% carbon dioxide, 48 hours
Experimental: as §1
(§3) Streptococci and enterococci were tested on agar supplemented with 5% defibrinated horse blood, an inoculum of 10^4 CFU/spot and an incubation temperature of 37° C. in an atmosphere of 5% carbon dioxide for 48 hours—blood is required for the growth of some of the test organisms.

[7] = system: Streptococcus pyogenes C203; settings: agar with 5% defibrinated horse blood, 10^4 CFU/spot, 37° C., 5% carbon dioxide, 48 hours
Experimental: as §1, §3

Bacillus subtilis = settings: 10^4 CFU/spot
Excerpt: as §1

Compound `CC(=O)NC[C@H]1CN(c2ccc(C3=CCN(C(=O)OC(C)(C)C)CC3)cc2)C(=O)O1` [Example 1, N-((5S)-3-(4-(1-tert-butoxycarbonyl-1,2,5,6-tetrahydropyrid-4-yl)phenyl)-2-oxoxazolidin-5yl-methyl)acetamide] has an MIC [1] of 1.0 µg/mL (≈ 2.41 µM), an MIC [2] of 0.25 µg/mL (≈ 0.602 µM) and an MIC [3] of 0.5 µg/mL (≈ 1.2 µM). The MIC [4] was 0.5 µg/mL (≈ 1.2 µM), the MIC [5] was 0.5 µg/mL (≈ 1.2 µM) and the MIC [6] was 1.0 µg/mL (≈ 2.41 µM). For the same compound, the MIC (Enterococcus faecalis) was 1.0 µg/mL (≈ 2.41 µM), the MIC [7] was 1.0 µg/mL (≈ 2.41 µM) and the MIC (Bacillus subtilis) was 0.25 µg/mL (≈ 0.602 µM).
